{"source": "patent EP4574817A1", "about": "(LoQus23 Therapeutics Limited, priority 2023, dated 2025)"}
{"biological_target": "T1, MutSβ (Homo sapiens, UniProt P20585+P43246)", "T1 construct": "purchased AMRI", "T1 sequence (P43246 whole entry)": "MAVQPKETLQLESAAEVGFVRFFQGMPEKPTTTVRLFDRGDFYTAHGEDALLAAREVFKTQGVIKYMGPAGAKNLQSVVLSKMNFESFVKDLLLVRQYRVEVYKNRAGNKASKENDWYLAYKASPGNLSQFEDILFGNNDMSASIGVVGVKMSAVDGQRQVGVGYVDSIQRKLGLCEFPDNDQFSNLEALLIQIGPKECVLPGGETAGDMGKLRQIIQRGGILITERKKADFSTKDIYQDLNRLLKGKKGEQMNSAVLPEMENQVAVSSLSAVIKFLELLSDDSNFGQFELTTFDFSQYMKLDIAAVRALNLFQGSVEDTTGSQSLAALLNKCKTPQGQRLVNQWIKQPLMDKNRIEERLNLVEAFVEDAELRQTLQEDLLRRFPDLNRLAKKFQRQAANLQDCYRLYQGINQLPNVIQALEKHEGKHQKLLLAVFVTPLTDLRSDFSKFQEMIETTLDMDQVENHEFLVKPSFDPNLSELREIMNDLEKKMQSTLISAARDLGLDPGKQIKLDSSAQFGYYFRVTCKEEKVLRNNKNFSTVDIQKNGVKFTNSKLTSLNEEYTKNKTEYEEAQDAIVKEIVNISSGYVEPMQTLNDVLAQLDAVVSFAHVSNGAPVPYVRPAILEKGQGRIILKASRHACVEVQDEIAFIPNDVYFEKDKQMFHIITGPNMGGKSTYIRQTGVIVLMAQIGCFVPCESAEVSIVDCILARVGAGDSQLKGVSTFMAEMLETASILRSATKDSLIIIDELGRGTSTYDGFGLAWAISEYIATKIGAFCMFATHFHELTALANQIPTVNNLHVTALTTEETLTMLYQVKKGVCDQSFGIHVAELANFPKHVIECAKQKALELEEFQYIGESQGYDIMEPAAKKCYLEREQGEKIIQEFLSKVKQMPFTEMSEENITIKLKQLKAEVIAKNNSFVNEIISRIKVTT", "T1 sequence (P20585 whole entry)": "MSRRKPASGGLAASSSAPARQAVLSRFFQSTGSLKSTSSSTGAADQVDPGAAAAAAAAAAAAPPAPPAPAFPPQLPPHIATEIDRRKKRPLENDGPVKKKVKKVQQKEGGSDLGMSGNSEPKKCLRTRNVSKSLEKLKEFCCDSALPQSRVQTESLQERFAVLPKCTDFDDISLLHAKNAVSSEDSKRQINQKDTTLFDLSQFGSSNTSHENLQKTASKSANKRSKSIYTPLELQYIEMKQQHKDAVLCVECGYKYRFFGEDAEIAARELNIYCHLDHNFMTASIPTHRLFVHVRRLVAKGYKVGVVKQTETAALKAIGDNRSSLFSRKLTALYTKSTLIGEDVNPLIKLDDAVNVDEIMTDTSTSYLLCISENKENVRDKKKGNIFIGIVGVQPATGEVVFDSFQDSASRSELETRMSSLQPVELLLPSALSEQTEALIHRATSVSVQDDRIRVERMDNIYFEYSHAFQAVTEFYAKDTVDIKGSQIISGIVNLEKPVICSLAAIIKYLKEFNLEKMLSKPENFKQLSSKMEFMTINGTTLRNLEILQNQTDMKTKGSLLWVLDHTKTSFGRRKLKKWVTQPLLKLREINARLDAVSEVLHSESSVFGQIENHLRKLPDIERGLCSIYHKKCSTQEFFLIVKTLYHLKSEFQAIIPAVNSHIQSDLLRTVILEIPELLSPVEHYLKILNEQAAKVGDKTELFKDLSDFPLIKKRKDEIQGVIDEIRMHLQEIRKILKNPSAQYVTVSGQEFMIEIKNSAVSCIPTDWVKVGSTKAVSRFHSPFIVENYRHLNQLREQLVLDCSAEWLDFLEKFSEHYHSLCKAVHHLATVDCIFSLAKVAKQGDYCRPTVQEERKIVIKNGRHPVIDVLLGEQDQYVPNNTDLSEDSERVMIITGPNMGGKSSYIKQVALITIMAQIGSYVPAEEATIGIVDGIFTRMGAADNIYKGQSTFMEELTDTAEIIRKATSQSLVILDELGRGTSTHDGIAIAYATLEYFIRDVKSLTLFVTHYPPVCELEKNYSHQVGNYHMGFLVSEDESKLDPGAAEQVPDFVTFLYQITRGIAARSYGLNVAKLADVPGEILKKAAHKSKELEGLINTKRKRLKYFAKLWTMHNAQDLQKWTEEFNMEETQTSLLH", "test": "MutSβ ADP Glo Assay", "format": "biochemical", "details": "20nM MutSβ, 30nM CAG DNA, 25 µM ATP, 2 hours at room temperature", "protocol": "Biological Example A - MutSβ Assay\n• MutSβ (supplied by AMRI) stored at -70°C • ADP Glo Kinase Assay Kit (Promega: V9102) stored at -20°C • ATP (supplied within the ADP Glo Kit) stored at -20°C • 1M KCI (Sigma Aldrich: P9333) stored at 2-8°C • 1 M HEPES pH 7.5 (Gibco: M15630-080) stored at 2-8°C • 1M MgCl2 (Sigma Aldrich: M1028-100mL) stored at 2-8°C • Tween-20 (Sigma Aldrich: P1379) (10% solution) stored at 2-8°C • 500mM DTT (Sigma Aldrich: 10197777001) stored at -20°C • CAG loop DNA for MutSβ (made in house) stored at -20°C • MilliQ water stored at room temperature\n• 1. Prepare the buffer fresh each day • 2. Take the enzyme from the freezer, thaw in room temperature water and centrifuge at 13,000 rpm for 10 minutes at 2-8C, then make up enzyme and ATP stocks • 3. Quality Control the multidrop head to a %CV of <2% • 4. Add 3µL of 33.34nM MutSβ and 50.01nM CAG looped DNA solution […] to each well in columns 1 and 3-23 of the plate • 5. Pre-incubate the MutSβ and buffer mix for 10 minutes with the compounds • 6. Wash the multidrop head through with MilliQ water (for at least 30 seconds) • 7. Add 3µL of MutSβ Assay buffer (without enzyme) to columns 2 and 24 for the vehicle controls • 8. Wash the multidrop head through with MilliQ water (for at least 30 seconds) • 9. Add 2µL of 62.5µM ATP to each well of the whole plate, then wash with MilliQ water (for a minimum of 30 seconds) • 10. Centrifuge plate for 1 minute at 1000 rpm • 11. Incubate for 2 hours at room temperature • 12. Add 5µL of ADP Glo reagent to each well of the whole plate and wash the multidrop head with MilliQ water (for a minimum of 30 seconds) • 13. Incubate for 40 minutes at room temperature (minimum requirement) • 14. Add 10µL of Kinase Detection Reagent to each well of the whole plate • 15. Wash the multidrop head with MilliQ water more than 1 minute and then dry • 16. Remove the head and put the cover back on for overnight storage • 17. Incubate for 30 minutes at room temperature (minimum requirement) • 18. Read on a microplate reader", "units": {"IC50": "µM"}}
{"compound": "2-((4-methyl-5-(4-methylbenzyl)thiazol-2-yl)amino)-2-oxoethyl isobutylsulfamate [Example 17]", "IC50": "10 to 50"}
{"compound": "Cc1ccc(Cc2sc(NC(=O)COS(N)(=O)=O)nc2C)cc1", "note": "[Example 3, 2-((4-methyl-5-(4-methylbenzyl)thiazol-2-yl)amino)-2-oxoethyl sulfamate]", "IC50": "1 to 10"}
{"compound": "Cc1nc(NC(=O)COS(=O)(=O)N(C)C)sc1Cc1ccc(F)cc1", "note": "[Example 4, 2-((5-(4-fluorobenzyl)-4-methylthiazol-2-yl)amino)-2-oxoethyl dimethylsulfamate]", "IC50": "0.5 to 1"}
{"compound": "CNS(=O)(=O)OCC(=O)Nc1nc(C)c(Cc2ccc3ccccc3c2)s1", "note": "[Example 5, 2-((4-methyl-5-(naphthalen-2-ylmethyl)thiazol-2-yl)amino)-2-oxoethyl methylsulfamate]", "IC50": "1 to 10"}
{"compound": "Cc1ccc(Cc2sc(NC(=O)COS(=O)(=O)NC3CC3)nc2C)cc1", "note": "[Example 6, 2-((4-methyl-5-(4-methylbenzyl)thiazol-2-yl)amino)-2-oxoethyl cyclopropylsulfamate]", "IC50": "1 to 10"}
{"compound": "CNS(=O)(=O)OCC(=O)Nc1nc(C)c(Cc2ccc(F)c(Cl)c2)s1", "note": "[Example 7, 2-((5-(3-chloro-4-fluorobenzyl)-4-methylthiazol-2-yl)amino)-2-oxoethyl methylsulfamate]", "IC50": "≤ 0.5"}
{"compound": "COCCNS(=O)(=O)OCC(=O)Nc1nc(C)c(Cc2cccc(Cl)c2)s1", "note": "[Example 8, 2-((5-(3-chlorobenzyl)-4-methylthiazol-2-yl)amino)-2-oxoethyl (2-methoxyethyl)sulfamate]", "IC50": "0.5 to 1"}
{"compound": "Cc1ccc(Cc2sc(NC(=O)COS(=O)(=O)N3CCOCC3)nc2C)cc1", "note": "[Example 9, 2-((4-methyl-5-(4-methylbenzyl)thiazol-2-yl)amino)-2-oxoethyl morpholine-4-sulfonate]", "IC50": "0.5 to 1"}
{"compound": "CNS(=O)(=O)OCC(=O)Nc1nc(C)c(Cc2ccccc2C)s1", "note": "[Example 11, 2-((4-methyl-5-(2-methylbenzyl)thiazol-2-yl)amino)-2-oxoethyl methylsulfamate]", "IC50": "10 to 50"}
{"compound": "Cc1nc(NC(=O)COS(=O)(=O)N(C)C)sc1Cc1cccc(C(F)(F)F)c1", "note": "[Example 13, 2-((4-methyl-5-(3-(trifluoromethyl)benzyl)thiazol-2-yl)amino)-2-oxoethyl dimethylsulfamate]", "IC50": "1 to 10"}
{"compound": "CNS(=O)(=O)OCC(=O)Nc1nc(C)c(Cc2ccccc2Cl)s1", "note": "[Example 16, 2-((5-(2-chlorobenzyl)-4-methylthiazol-2-yl)amino)-2-oxoethyl methylsulfamate]", "IC50": "1 to 10"}
{"compound": "CCc1nc(NC(=O)COS(=O)(=O)NC)sc1Cc1ccc(C)cc1", "note": "[Example 18, 2-((4-ethyl-5-(4-methylbenzyl)thiazol-2-yl)amino)-2-oxoethyl methylsulfamate]", "IC50": "1 to 10"}
{"compound": "Cc1ccc(Cc2sc(NC(=O)COS(=O)(=O)N(C)C)nc2C)cc1", "note": "[Example 20, 2-((4-methyl-5-(4-methylbenzyl)thiazol-2-yl)amino)-2-oxoethyl dimethylsulfamate]", "IC50": "1 to 10"}
{"compound": "Cc1ccc(Cc2sc(NC(=O)COS(=O)(=O)N3CC(F)C3)nc2C)cc1", "note": "[Example 21, 2-((4-methyl-5-(4-methylbenzyl)thiazol-2-yl)amino)-2-oxoethyl 3-fluoroazetidine-1-sulfonate]", "IC50": "0.5 to 1"}
{"compound": "Cc1nc(NC(=O)COS(=O)(=O)N(C)C)sc1Cc1ccccc1F", "note": "[Example 22, 2-((5-(2-fluorobenzyl)-4-methylthiazol-2-yl)amino)-2-oxoethyl dimethylsulfamate]", "IC50": "1 to 10"}
{"compound": "Cc1ccc(Cc2sc(NC(=O)COS(=O)(=O)NC(C)C)nc2C)cc1", "note": "[Example 23, 2-((4-methyl-5-(4-methylbenzyl)thiazol-2-yl)amino)-2-oxoethyl isopropylsulfamate]", "IC50": "1 to 10"}
{"compound": "CNS(=O)(=O)OCC(=O)Nc1nc(C)c(Cc2cccc(C)c2)s1", "note": "[Example 24, 2-((4-methyl-5-(3-methylbenzyl)thiazol-2-yl)amino)-2-oxoethyl methylsulfamate]", "IC50": "1 to 10"}
{"compound": "Cc1ccc(Cc2sc(NC(=O)COS(=O)(=O)N3CCC3)nc2C)cc1", "note": "[Example 25, 2-((4-methyl-5-(4-methylbenzyl)thiazol-2-yl)amino)-2-oxoethyl azetidine-1-sulfonate]", "IC50": "≤ 0.5"}
{"compound": "CNS(=O)(=O)OCC(=O)Nc1nc(C)c(Cc2ccc(OC)cc2)s1", "note": "[Example 26, 2-((5-(4-methoxybenzyl)-4-methylthiazol-2-yl)amino)-2-oxoethyl methylsulfamate]", "IC50": "1 to 10"}
{"compound": "Cc1nc(NC(=O)COS(=O)(=O)N(C)C)sc1Cc1ccccc1", "note": "[Example 28, 2-((5-benzyl-4-methylthiazol-2-yl)amino)-2-oxoethyl dimethylsulfamate]", "IC50": "1 to 10"}
{"compound": "COCCN(C)S(=O)(=O)OCC(=O)Nc1nc(C)c(Cc2ccc(C)cc2)s1", "note": "[Example 29, 2-((4-methyl-5-(4-methylbenzyl)thiazol-2-yl)amino)-2-oxoethyl (2-methoxyethyl)(methyl)sulfamate]", "IC50": "0.5 to 1"}
{"compound": "CNS(=O)(=O)OCC(=O)Nc1nc(C)c(Cc2ccc(Cl)cc2)s1", "note": "[Example 30, 2-((5-(4-chlorobenzyl)-4-methylthiazol-2-yl)amino)-2-oxoethyl methylsulfamate]", "IC50": "1 to 10"}
{"compound": "Cc1ccc(Cc2sc(NC(=O)COS(=O)(=O)N3CCCC3)nc2C)cc1", "note": "[Example 31, 2-((4-methyl-5-(4-methylbenzyl)thiazol-2-yl)amino)-2-oxoethyl pyrrolidine-1-sulfonate]", "IC50": "1 to 10"}
{"compound": "CNS(=O)(=O)OCC(=O)Nc1nc(C)c(Cc2ccc(C(F)(F)F)cc2)s1", "note": "[Example 32, 2-((4-methyl-5-(4-(trifluoromethyl)benzyl)thiazol-2-yl)amino)-2-oxoethyl methylsulfamate]", "IC50": "1 to 10"}
{"compound": "CNS(=O)(=O)OCC(=O)Nc1nc(C)c(Cc2ccc(C(C)C)cc2)s1", "note": "[Example 33, 2-((5-(4-isopropylbenzyl)-4-methylthiazol-2-yl)amino)-2-oxoethyl methylsulfamate]", "IC50": "10 to 50"}
{"compound": "Cc1nc(NC(=O)COS(=O)(=O)N(C)C)sc1CCc1ccccc1", "note": "[Example 35, 2-((4-methyl-5-phenethylthiazol-2-yl)amino)-2-oxoethyl dimethylsulfamate]", "IC50": "10 to 50"}
{"compound": "CNS(=O)(=O)OCC(=O)Nc1nc(C2CC2)c(Cc2ccc(C)cc2)s1", "note": "[Example 36, 2-((4-cyclopropyl-5-(4-methylbenzyl)thiazol-2-yl)amino)-2-oxoethyl methylsulfamate]", "IC50": "1 to 10"}
{"compound": "CNS(=O)(=O)OCC(=O)Nc1nc(C(C)C)c(Cc2ccc(C)cc2)s1", "note": "[Example 37, 2-((4-isopropyl-5-(4-methylbenzyl)thiazol-2-yl)amino)-2-oxoethyl methylsulfamate]", "IC50": "10 to 50"}
{"compound": "CNS(=O)(=O)OCC(=O)Nc1nc(C)c(CCc2ccc(Cl)cc2)s1", "note": "[Example 38, 2-((5-(4-chlorophenethyl)-4-methylthiazol-2-yl)amino)-2-oxoethyl methylsulfamate]", "IC50": "10 to 50"}
{"compound": "CCCNS(=O)(=O)OCC(=O)Nc1nc(C)c(Cc2ccc(C)cc2)s1", "note": "[Example 41, 2-((4-methyl-5-(4-methylbenzyl)thiazol-2-yl)amino)-2-oxoethyl propylsulfamate]", "IC50": "1 to 10"}
{"compound": "Cc1ccc(Cc2sc(NC(=O)COS(=O)(=O)N(C)Cc3ccccc3)nc2C)cc1", "note": "[Example 42, 2-((4-methyl-5-(4-methylbenzyl)thiazol-2-yl)amino)-2-oxoethyl benzyl(methyl)sulfamate]", "IC50": "1 to 10"}
{"compound": "Cc1ccc(Cc2sc(NC(=O)COS(=O)(=O)NC(C)(C)C)nc2C)cc1", "note": "[Example 43, 2-((4-methyl-5-(4-methylbenzyl)thiazol-2-yl)amino)-2-oxoethyl tert-butylsulfamate]", "IC50": "10 to 50"}
{"compound": "CNS(=O)(=O)OCC(=O)Nc1nc(C(F)(F)F)c(Cc2ccc(C)cc2)s1", "note": "[Example 44]", "IC50": "1 to 10"}
{"compound": "Cc1ccc(Cc2sc(NC(=O)COS(=O)(=O)NCc3ccccc3)nc2C)cc1", "note": "[Example 45, 2-((4-methyl-5-(4-methylbenzyl)thiazol-2-yl)amino)-2-oxoethyl benzylsulfamate]", "IC50": "1 to 10"}
{"compound": "CNS(=O)(=O)OCC(=O)Nc1nc(C)c(Cc2ccc(C)cc2)s1", "note": "[Example 47, 2-((4-methyl-5-(4-methylbenzyl)thiazol-2-yl)amino)-2-oxoethyl methylsulfamate]", "IC50": "1 to 10"}
{"compound": "CNS(=O)(=O)OCC(=O)Nc1nc(C)c(Cc2cccc3ccccc23)s1", "note": "[Example 48, 2-((4-methyl-5-(naphthalen-1-ylmethyl)thiazol-2-yl)amino)-2-oxoethyl methylsulfamate]", "IC50": "10 to 50"}
{"compound": "Cc1nc(NC(=O)COS(=O)(=O)NCCF)sc1Cc1cccc(Cl)c1", "note": "[Example 49, 2-((5-(3-chlorobenzyl)-4-methylthiazol-2-yl)amino)-2-oxoethyl (2-fluoroethyl)sulfamate]", "IC50": "0.5 to 1"}
